Experimental data from patent publication US20100029619A1, “FUSED HETEROCYCLIC COMPOUND” (TAKEDA PHARMACEUTICAL COMPANY LIMTED, priority 2006, published 2010).

Compound	melting point
Cc1cccc2nc(NC(=O)c3ccc(C(C)(C)C)cc3)cn12 [Example 65, 4-tert-Butyl-N-(5-methylimidazo[1,2-a]pyridin-2-yl)benzamide]	204 to 205 °C
CC(O)c1ccc2nc(NC(=O)c3ccc(C(C)(C)C)cc3)cn2c1 (stereo not shown) [Example 71, 4-tert-butyl-N-[6-(1-hydroxyethyl)imidazo[1,2-a]pyridin-2-yl]benzamide]	249 to 250 °C
CC(C)(C)c1ccc(C(=O)Nc2cn3cc(-c4ncc[nH]4)ccc3n2)cc1 [Example 73, 4-tert-butyl-N-[6-(1H-imidazol-2-yl)imidazo[1,2-a]pyridin-2-yl]benzamide]	300 to 301 °C
CC(C)(C)c1ccc(C(=O)Nc2cn3cc(-c4cnco4)ccc3n2)cc1 [Example 74, 4-tert-butyl-N-[6-(1,3-oxazol-5-yl)imidazo[1,2-a]pyridazin-2-yl]benzamide]	265 to 266 °C
CC(C)(C)c1ccc(C(=O)Nc2cn3cc(-c4cnc[nH]4)ccc3n2)cc1 [Example 76, 4-tert-butyl-N-[6-(1H-imidazol-5-yl)imidazo[1,2-a]pyridin-2-yl]benzamide]	297 to 298 °C
CC(C)(C)c1ccc(C(=O)Nc2cn3cc(C#N)ccc3n2)cc1 [Example 78, 4-tert-butyl-N-[6-cyanoimidazo[1,2-a]pyridin-2-yl]benzamide]	300 to 301 °C
CN(C)Cc1ccc2nc(NC(=O)c3ccc(C(C)(C)C)cc3)cn2c1 [Example 80, 4-tert-butyl-N-[6-(dimethylaminomethyl)imidazo[1,2-a]pyridin-2-yl]benzamide]	236 to 237 °C
CN(C)c1ccc(C(=O)Nc2cn3cc(-n4ccnc4)ccc3n2)cc1 [Example 85, 4-dimethylamino-N-[6-(1H-imidazol-1-yl)imidazo[1,2-a]pyridin-2-yl]benzamide]	247 to 248 °C
CC(C)(C)c1ccc(C(=O)Nc2cn3cc(-n4ccnc4)ccc3n2)cn1 [Example 86, 6-tert-butyl-N-[6-(1H-imidazol-1-yl)imidazo[1,2-a]pyridin-2-yl]nicotinamide]	242 to 245 °C
O=C(Nc1cn2cc(-n3ccnc3)ccc2n1)c1ccc(-c2ncc[nH]2)cc1 [Example 88, 4-(1H-imidazol-2-yl)-N-[6-(1H-imidazol-1-yl)imidazo[1,2-a]pyridin-2-yl]benzamide]	276 to 279 °C (dec.)
O=C(Nc1cn2cc(-n3ccnc3)ccc2n1)c1ccc(-c2ccoc2)cc1 [Example 89, 4-(3-furyl)-N-[6-(1H-imidazol-1-yl)imidazo[1,2-a]pyridin-2-yl]benzamide]	261 to 263 °C
CC(C)(CO)c1ccc(C(=O)Nc2cn3cc(Cl)ccc3n2)cc1 [Example 90, N-[6-chloroimidazo[1,2-a]pyridin-2-yl]-4-(2-hydroxy-1,1-dimethylethyl)benzamide]	240 to 242 °C
CC(C)(N)c1ccc(C(=O)Nc2cn3cc(Cl)ccc3n2)cc1 [Example 92, 4-(1-amino-1-methylethyl)-N-(6-chloroimidazo[1,2-a]pyridin-2-yl)benzamide]	235 to 237 °C
CC(C)(CN)c1ccc(C(=O)Nc2cn3cc(Cl)ccc3n2)cc1 [Example 94, 4-(2-amino-1,1-dimethylethyl)-N-(6-chloroimidazo[1,2-a]pyridin-2-yl)benzamide]	245 to 247 °C
O=C(Nc1cn2cc(Cl)ccc2n1)c1ccc(-n2cccn2)cc1 [Example 95, N-(6-chloroimidazo[1,2-a]pyridin-2-yl)-4-(1H-pyrazol-1-yl)benzamide]	287 to 289 °C
CC(C)c1ccc(C(=O)Nc2cn3cc(-n4ccnc4)ccc3n2)cc1 [Example 97, N-[6-(1H-imidazol-1-yl)imidazo[1,2-a]pyridin-2-yl]-4-isopropylbenzamide]	291 to 293 °C
CC(C)(C)c1ccc(C(=O)Nc2cn3cc(-c4cnco4)ccc3n2)cn1 [Example 100, 6-tert-butyl-N-[6-(1,3-oxazol-5-yl)imidazo[1,2-a]pyridin-2-yl]nicotinamide]	251 to 253 °C
CC(C)(C)c1ccc(C(=O)Nc2cn3cc(-c4cccnc4)ccc3n2)cn1 [Example 102, 6-tert-butyl-N-(6-(pyridin-3-yl)imidazo[1,2-a]pyridin-2-yl)nicotinamide]	272 to 274 °C
CC(C)(CO)c1ccc(C(=O)Nc2cn3cc(-n4ccnc4)ccc3n2)cc1 [Example 103, 4-(2-hydroxy-1,1-dimethylethyl)-N-[6-(1H-imidazol-1-yl)imidazo[1,2-a]pyridin-2-yl]benzamide]	278 to 280 °C
Cn1cc(-c2ccc3nc(NC(=O)c4ccc(C(C)(C)C)nc4)cn3c2)cn1 [Example 105, 6-tert-butyl-N-[6-(1-methyl-1H-pyrazol-4-yl)imidazo[1,2-a]pyridin-2-yl]nicotinamide]	228 to 230 °C
COc1ccc(-c2ccc3nc(NC(=O)c4ccc(C(C)(C)C)cc4)cn3c2)cn1 [Example 106, 4-tert-butyl-N-[6-(6-methoxypyridin-3-yl)imidazo[1,2-a]pyridin-2-yl]benzamide]	245 to 247 °C
CC(C)(C)c1ccc(C(=O)Nc2cn3cc(-c4cccs4)ccc3n2)cc1 [Example 107, 4-tert-butyl-N-[6-(2-thienyl)imidazo[1,2-a]pyridin-2-yl]benzamide]	273 to 275 °C
CC(C)(C)c1ccc(C(=O)Nc2cn3cc(-c4ccsc4)ccc3n2)cc1 [Example 108, 4-tert-butyl-N-[6-(3-thienyl)imidazo[1,2-a]pyridin-2-yl]benzamide]	261 to 263 °C
CS(=O)(=O)Nc1ccc(C(=O)Nc2cn3cc(Cl)ccc3n2)cc1 [Example 110, N-(6-chloroimidazo[1,2-a]pyridin-2-yl)-4-[(methylsulfonyl)amino]benzamide]	293 to 295 °C

Other lines, results leading:

melting point	Compound
238 to 240 °C	CC(C)(C)c1ccc(C(=O)Nc2cn3cc(-c4cn[nH]c4)ccc3n2)cn1 [Example 114, 6-tert-butyl-N-[6-(1H-pyrazol-4-yl)imidazo[1,2-a]pyridin-2-yl]nicotinamide]
304 to 306 °C (dec.)	CC(C)(CC(=O)O)c1ccc(C(=O)Nc2cn3cc(Cl)ccc3n2)cc1 [Example 117, 3-(4-{[(6-chloroimidazo[1,2-a]pyridin-2-yl)amino]carbonyl}phenyl)-3-methylbutanoic acid]
309 to 311 °C (dec.)	CC(C)(CCC(=O)O)c1ccc(C(=O)Nc2cn3cc(Cl)ccc3n2)cc1 [Example 118, 4-(4-{[(6-chloroimidazo[1,2-a]pyridin-2-yl)amino]carbonyl}phenyl)-4-methylpentanoic acid]
220 to 222 °C	CC(=O)NCC(C)(C)c1ccc(C(=O)Nc2cn3cc(Cl)ccc3n2)cc1 [Example 122, 4-[2-(acetylamino)-1,1-dimethylethyl]-N-(6-chloroimidazo[1,2-a]pyridin-2-yl)benzamide]
225 to 227 °C	CCC(=O)NCC(C)(C)c1ccc(C(=O)Nc2cn3cc(Cl)ccc3n2)cc1 [Example 126, N-(6-chloroimidazo[1,2-a]pyridin-2-yl)-4-[1,1-dimethyl-2-(propionylamino)ethyl]benzamide]
228 to 230 °C	CCNC(=O)C(C)(C)c1ccc(C(=O)Nc2cn3cc(Cl)ccc3n2)cc1 [Example 127, N-(6-chloroimidazo[1,2-a]pyridin-2-yl)-4-[2-(ethylamino)-1,1-dimethyl-2-oxoethyl]benzamide]
228 to 230 °C	CNC(=O)CC(C)(C)c1ccc(C(=O)Nc2cn3cc(Cl)ccc3n2)cc1 [Example 128, N-(6-chloroimidazo[1,2-a]pyridin-2-yl)-4-[1,1-dimethyl-3-(methylamino)-3-oxopropyl]benzamide]
249 to 252 °C	CCC(=O)NC(C)(C)c1ccc(C(=O)Nc2cn3cc(Cl)ccc3n2)cc1 [Example 129, N-(6-chloroimidazo[1,2-a]pyridin-2-yl)-4-[1-methyl-1-(propionylamino)ethyl]benzamide]
241 to 244 °C	CC(C)(C#N)c1ccc(C(=O)Nc2cn3cc(-n4ccnc4)ccc3n2)cc1 [Example 130, 4-(1-cyano-1-methylethyl)-N-[6-(1H-imidazol-1-yl)imidazo[1,2-a]pyridin-2-yl]benzamide]
245 to 247 °C	CCN(c1ccc(C(=O)Nc2cn3cc(Cl)ccc3n2)cc1)S(C)(=O)=O [Example 131, N-(6-chloroimidazo[1,2-a]pyridin-2-yl)-4-[ethyl(methylsulfonyl)amino]benzamide]
242 to 244 °C	CC(=O)NCC(C)(C)c1ccc(C(=O)Nc2cn3cc(-n4ccnc4)ccc3n2)cc1 [Example 135, 4-[2-(acetylamino)-1,1-dimethylethyl]-N-[6-(1H-imidazol-1-yl)imidazo[1,2-a]pyridin-2-yl]benzamide]
162 to 164 °C	CCCNCC(C)(C)c1ccc(C(=O)Nc2cn3cc(-n4ccnc4)ccc3n2)cc1 [Example 136, 4-[1,1-dimethyl-2-(propylamino)ethyl]-N-[6-(1H-imidazol-1-yl)imidazo[1,2-a]pyridin-2-yl]benzamide]
314 to 316 °C (dec.)	CC(C)(C)c1ccc(C(=O)Nc2cn3nc(-n4cnc(CC#N)c4)ccc3n2)cc1 [Example 142, 4-tert-butyl-N-{6-[4-(cyanomethyl)-1H-imidazol-1-yl]imidazo[1,2-b]pyridazin-2-yl}benzamide]
254 to 255 °C	Cc1cn(-c2ccc3nc(NC(=O)c4ccc(C(C)(C)C)cc4)cn3n2)c(C)n1 [Example 143, 4-tert-butyl-N-[6-(2,4-dimethyl-1H-imidazol-1-yl)imidazo[1,2-b]pyridazin-2-yl]benzamide]
220 to 221 °C	CCc1nc(C)cn1-c1ccc2nc(NC(=O)c3ccc(C(C)(C)C)cc3)cn2n1 [Example 144, 4-tert-butyl-N-[6-(2-ethyl-4-methyl-1H-imidazol-1-yl)imidazo[1,2-b]pyridazin-2-yl]benzamide]
298 to 301 °C	CC(C)(C)c1ccc(C(=O)Nc2cn3nc(-n4cnc(CO)c4)ccc3n2)cc1 [Example 145, 4-tert-butyl-N-{6-[4-(hydroxymethyl)-1H-imidazol-1-yl]imidazo[1,2-b]pyridazin-2-yl}benzamide]
